Test results: article PMC11640089, “JRM-28, a Novel HDAC2 Inhibitor, Upregulates Plasticity-Associated Proteins in Hippocampal Neurons and Enhances Morphological Plasticity via Activation of CREB: Implications for Alzheimer’s Disease” (Cells, 2024)
Where two headings read alike, the source gives them in different places.

Key:
[1] = test system: mouse primary hippocampal neurons; assay: Dendrite and spine analysis in E18 mouse primary hippocampal neurons; type: cell-based; details: 5 µM, 48 h
Procedure: Primary neuronal cell culture was performed based on a protocol approved by the Institutional Animal Care and Use Committee (IACUC) of the University of Wisconsin-Milwaukee, Milwaukee, WI-53211, and by the guidelines set by the National Institute of Health. Embryonic day 18 (E18) fetuses were harvested, and hippocampal tissue was dissected from brains and then processed for single cell culture in poly-D-lysine-coated plates, as discussed elsewhere. Neuronal cells were maintained with B-27^TM-plus-supplemented complete neurobasal media for 7–10 days until fully differentiated. After that, the treatment with JRM-28 was performed. […]
For counting spine density, dissociated E18 hippocampal neurons maintained 18 days in vitro were stained with Alexa-647 conjugated phalloidin (Cat #A22287) together with MAP2. Only densely stained neurons (>20 spines every 10 µm dendrite) were counted. The total length of each dendrite was measured at 400× magnification using an Accu-Scope EXC-500 microscope (NY, USA). The number of spines on the dendrites was counted under oil immersion. As some of the spines were hidden under the dendrite, only spines that protruded laterally from the shafts of the dendrites into the surrounding area of clear neuropil were counted. […]

[2] = test system: mouse primary hippocampal neurons; assay: NMDA/AMPA-sensitive calcium influx assay in mouse primary hippocampal neurons; type: cell-based
Procedure: Mouse primary hippocampal neurons and AD neurons were loaded with Fluo4-fluorescence conjugated calcium dye (Invitrogen Molecular Probes, Cat #F10471) and incubated at 37 °C for 60 min, as described before. Briefly, fluorescence excitation and emission spectra were recorded in a Perkin–Elmer Victor X2 Fluorimetric Spectrometer (Versiti Blood Center, Wauwatosa, WI, USA) in the presence of 50 μM NMDA and AMPA solutions. The recording was performed with 100 repeats at 0.1 ms intervals. The oscillogram was generated with the help of Parkin Elmer 2030 software that was connected to the Victor X2 calcium recorder unit. The real-time calcium noise graph was generated as a kinetic chart plotted on a linear scale.

CREB = CREB family expression (PCR array, RT-PCR, immunoblot) in SHSY5Y cells; type: cell-based, human
Procedure: Total RNA was isolated from SHSY5Y neurons using Gene JET RNA Purification Kit (Thermofisher Scientific; Cat #K0731) following the manufacturer’s protocol. RNA was converted to cDNA using the GoScript™ Reverse Transcriptase kit (Promega, Cat # A5001). Semi-quantitative RT-PCR was carried out as described earlier using an RT-PCR kit from Promega (Cat# M7502). Briefly, 1 µg of total RNA was reverse-transcribed using oligo(dT)12–18 as a primer and MMLV reverse transcriptase in a 20 µL reaction mixture. The resulting cDNA was diluted by nuclease-free H2O in a ratio of 1:2, and diluted cDNA was amplified using the following primers (Table 2).
Immunoblot analysis was carried out as described earlier. Briefly, SHSY5Y neuronal cell homogenates were electrophoresed by 4–12% Tris-Glycine gradient gel, proteins were transferred onto a 0.45 μm nitrocellulose membrane, and the protein band was visualized with Odyssey Sa infrared scanner after immunolabeling with primary antibodies followed by infrared fluorophore-tagged secondary antibody (Licor Biosciences, Lincoln, NE, USA).

HDAC2 = HDAC2 (Homo sapiens, UniProt Q92769); assay: HDAC2 inhibition assay, luminometric method (HDAC-Glo I/II); type: biochemical; set-up: purchased BPS Bioscience 50002; details: for IC50: HDAC2 0.5 nM, read-out: IC50 HDAC2 inhibition (luminescence)
Chain of HDAC2 (Q92769 whole entry): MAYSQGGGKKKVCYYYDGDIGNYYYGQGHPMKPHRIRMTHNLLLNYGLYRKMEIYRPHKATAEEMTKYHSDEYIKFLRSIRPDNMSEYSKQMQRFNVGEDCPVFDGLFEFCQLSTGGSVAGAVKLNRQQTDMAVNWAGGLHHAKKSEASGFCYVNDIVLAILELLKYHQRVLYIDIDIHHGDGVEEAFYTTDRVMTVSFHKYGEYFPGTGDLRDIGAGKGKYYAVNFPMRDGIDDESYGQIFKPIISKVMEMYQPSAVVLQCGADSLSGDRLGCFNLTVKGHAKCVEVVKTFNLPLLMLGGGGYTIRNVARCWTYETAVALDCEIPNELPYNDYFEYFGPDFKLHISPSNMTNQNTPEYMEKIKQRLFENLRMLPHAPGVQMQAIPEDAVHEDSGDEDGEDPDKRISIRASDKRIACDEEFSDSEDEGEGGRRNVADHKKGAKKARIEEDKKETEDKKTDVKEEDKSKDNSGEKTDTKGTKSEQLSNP
Procedure: HDAC2 inhibition assay was performed by either the luminometric or fluorimetric method applying the following procedures. The table (Table 1) represents the details of different HDAC proteins and antibodies used in all biochemical assays.
HDAC2 inhibition assay was performed by HDAC-Glo™ I/II Assays and Screening System (Catalog# G6420, Promega Corporation, Madison, WI, USA) by the luminometric method according to the manufacturer’s protocol. […] The HDAC-2 inhibition assay was performed as previously described to determine IC values. In brief, the purified HDAC2 was diluted in HDAC assay buffer (provided with the HDAC-Glo™ I/II Assays and Screening System) to the same concentration based on their calculated molar mass. […] Next, 10 µL of JRM-28 after serial dilution was added to 10 µL of diluted HDAC2 in such a way that the final HDAC2 concentration was 0.5 nM in each well of a 384-well microplate (Greiner, Kremsmünster, Austria). After 30 min of incubation, 20 µL of the HDAC-Glo substrate/developing reagent was added to each well according to the manufacturer’s instructions. The 384-well plate was then agitated on an orbital shaker for the mixing of components in each well for another 30 min at room temperature. Finally, luminescence was measured using a POLARstar Omega plate reader (BMG Labtech, Ortenberg, Germany).

IC50 (HDAC2; in the presence of DTT (reduced)): 280 nM | increase of HDAC2 inhibitory effect by addition of DTT (HDAC2; with DTT versus without DTT): ~200 fold | IC50 (HDAC2; without DTT (non-reduced dimer)): 54900 nM
SMILES: CN(C(=O)CC(O)/C=C/CCSS(=O)(=O)CC/C=C/C(O)CC(=O)N(C)c1ccccc1)c1ccccc1 (stereo not drawn) [JRM-28, S-((E)-5-hydroxy-7-(methyl(phenyl)amino)-7-oxohept-3-en-1-yl) (E)-5-hydroxy-7-(methyl(phenyl)amino)-7-oxohept-3-ene-1-sulfonothioate]
spine maturation (head-to-shaft ratio >0.6) ([1]; 18 DIV): significantly induced the maturation of spines | MAP2-ir basal dendrites ([1]; 8 days in vitro): significantly upregulated the synthesis of MAP2-ir basal dendrites | AMPA-sensitive calcium influx ([2]; 5 µM, 24 h): strongly upregulated | NMDA-sensitive calcium influx ([2]; 5 µM, 24 h): strongly upregulated | optimum dose for the calcium influx ([2]; 2, 5, and 10 µM tested): 5 µM | NMDA- and AMPA-driven calcium influx after creb siRNA ([2]; creb knocked down by creb siRNA): significantly abrogate | CREB and CREB-dependent gene expression (RT2 Profiler PCR Array) (CREB; 5 µM): strongly upregulated the expressions of the creb gene and 37 other CREB-dependent genes | creb mRNA expression (semi-quantitative RT-PCR) (CREB; 5 µM): upregulated the mRNA expression of creb | crem mRNA expression (semi-quantitative RT-PCR) (CREB; 2 and 5 µM): failed to upregulate the expression of crem | CREB protein expression (immunoblot) (CREB; increasing concentrations): upregulated the expression of CREB protein
